Several values for one entry are separate records, joined by “and”; a condition that tells them apart may be missing. Identical values can stand only once.
Experiments:
Details in all cases: 48 h
CU-ACC2 [1] = test: area under concentration-response curve (viability) (AUC (a.u.)); higher = less active
In short: (§1)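 Three adrenocortical carcinoma cell lines were exposed for 48 h to library compounds at 11 concentrations in 1,536-well plates, then read by CellTiter-Glo luminescence. Signals were scaled per plate against vehicle and empty-well controls. From fitted concentration-response curves of inhibitory or non-responding classes alone, AC50 and area under the curve were obtained.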

NCI-H295R [2] = test: as above
In short: as §1

CU-ACC1 [3] = test: as above
In short: as §1

CU-ACC2 [4] = test: AC50 viability; higher = less potent
In short: as §1

NCI-H295R [5] = test: AC50 viability; higher = less potent
In short: as §1

CU-ACC1 [6] = test: AC50 viability; higher = less potent
In short: as §1

Structure (SMILES) | area under concentration-response curve (CU-ACC2 [1]) | area under concentration-response curve (NCI-H295R [2]) | area under concentration-response curve (CU-ACC1 [3]) | AC50 viability (CU-ACC2 [4]) | AC50 viability (NCI-H295R [5]) | AC50 viability (CU-ACC1 [6])
CNC(=O)c1cc(COc2nnc(Nc3ccc(Cl)cc3)c3ccoc23)ccn1 | 462 | 423 | 419 | 8.33 µM | 5.25 µM | 1.86 µM
CNC(=O)c1ccc(Nc2ncc(C(F)(F)F)c(NCc3nccnc3N(C)[S+](C)(=O)[O-])n2)cc1 | 336 | 353 | 354 | 1.86 µM | 3.32 µM | 3.32 µM
Cn1ncc(Cl)c1-c1cc(C(=O)NC(CN)Cc2ccc(F)c(F)c2)oc1Cl (stereo not given) | 422 | 403 | 393 | 16.6 µM | 5.9 µM | 6.61 µM
Cc1ccc(NC(=O)Nc2cc(C(F)(F)F)ccc2F)cc1Nc1ccc2c(c1)NC(=O)/C2=C\c1ccc[nH]1 | 506 | 476 | 441 | 23.5 µM | 13.2 µM | 14.8 µM
COCCN1CCN(Cc2ccc(-c3n[nH]c4c3C(=O)c3c(NC(=O)NN5CCOCC5)cccc3-4)cc2)CC1 | 295 | 372 | 301 | 0.148 µM | 0.833 µM | 0.468 µM
CC[C@@]1(O)C(=O)OC\C2=C1\C=C\3N(CC4=C3N=C5C=CC=CC5=C4)C2=O | 424 | 443 | 363 | 0.742 µM | 1.48 µM | 1.66 µM
CC(C)C1NC(=O)C(NC(=O)C2=C3\N=C\4/C(=C(C)\C(=O)\C(=C4C(=O)NC5C(C)OC(=O)C(C(C)C)N(C)C(=O)CN(C)C(=O)C6CCCN6C(=O)C(NC5=O)C(C)C)N)OC3=C(C)C=C2)C(C)OC(=O)C(C(C)C)N(C)C(=O)CN(C)C(=O)C7CCCN7C1=O (stereo not given) | 152 | 307 | 230 | 0.00812 µM | 0.144 µM | 0.0512 µM
CC(C)C1=C(O)C=C(O)C(=C1)C/2=N/NC(=O)N2C3=CC4=C(C=C3)[N](C)C=C4 | 309 | 416 | 322 | 0.0186 µM | 0.132 µM | 0.0934 µM
CCN(CC)CCOC1=CC=C(NC2=NC=C3\C=C(/C(=O)N(C)C3=N2)C4=C(Cl)C=CC=C4Cl)C=C1 | 511 | 461 | 436 | 7.42 µM | 4.17 µM | 7.42 µM
NC1(C(=O)N[C@@H](CCO)c2ccc(Cl)cc2)CCN(c2ncnc3[nH]ccc23)CC1 | 515 | 463 | 432 | 18.6 µM | 5.9 µM | 3.72 µM
CCc1cc(C(N)=O)ccc1-n1nc(C(C)C)c2c(-n3cnc(-c4cnn(C)c4)c3)ccnc21 | 543 | 528 | 350 | 6.61 µM | 9.34 µM | 13.2 µM
CC(C)[C@H](C(=O)Nc1ccc(C(=O)NO)cc1)c1ccccc1 | 360 | 414 | 308 | 5.25 µM | 2.35 µM | 4.17 µM
Cc1cc(OCCCc2c3n(c4c(-c5c(C)nn(C)c5C)c(Cl)ccc24)[C@H](C)CN(c2cn(C)c4ccc(C(=O)O)cc24)C3=O)cc(C)c1Cl | 570 | 445 | 367 | 16.6 µM | 2.95 µM | 16.6 µM
O=C1c2c(O)ccc(O)c2C(=O)c2c(NCCNCCO)ccc(NCCNCCO)c21 | 512 | 514 | 458 | 9.34 µM | 14.8 µM | 16.6 µM
COc1ccc(CCN(C)CCCOc2ccc([S+](=O)([O-])c3c(C(C)C)c4ccccc4n3C)cc2)cc1OC | 565 | 427 | 448 | 20.9 µM | 13.2 µM | 10.5 µM
Cn1cc(-c2cnn3c(N)c(Br)c([C@@H]4CCCNC4)nc23)cn1 | 568 | 471 | 483 | 20.9 µM | 18.6 µM | 20.9 µM
C[S+](=O)([O-])N1CCN(Cc2cc3nc(-c4cccc5[nH]ncc45)nc(N4CCOCC4)c3s2)CC1 | 402 | 406 | 420 | 16.6 µM | 0.661 µM | 0.934 µM
c1cncc(CN2CCC(n3ncc4c(N5CCOCC5)nc(-c5ccc6[nH]ccc6c5)nc43)CC2)c1 | 472 | 446 | 442 | 14.8 µM | 16.6 µM | 20.9 µM
COCCn1c2c([n+](Cc3cnccn3)c1C)C(=O)c1ccccc1C2=O | 278 | 341 | 246 | 0.132 µM | 3.32 µM | 1.66 µM
Cc1cc(Nc2cc(CN3CCOCC3)c3nc(C)c(Cc4ccc(Cl)cc4F)n3n2)[nH]n1 | 439 | 420 | 440 | 18.6 µM | 23.5 µM | 37.2 µM
CNCc1ccc(C)c(NC(=O)c2ccc(Nc3nc(-c4ccccc4)c4ccccc4n3)cc2)c1 | 575 | 521 | 471 | 23.5 µM | 18.6 µM | 16.6 µM
COc1cc2c(Nc3ccc(Cl)c(Cl)c3F)ncnc2cc1OC[C@@H]1C[C@@H]2CN(C)C[C@@H]2C1 | 515 | 483 | 397 | 10.5 µM | 16.6 µM | 16.6 µM
CC1(C)OC/2=C(\[C@H](NCC3=CC=CC=C3)[C@@H]1O)C(=O)C4=CC=CC=C4C2=O | 368 | 403 | 381 | 18.6 µM | 1.86 µM | 2.35 µM
O=C(CCCCCCNC(=O)c1cnc(N(c2ccccc2)c2ccccc2)nc1)NO | 552 | 525 | 364 | 11.8 µM | 20.9 µM | 18.6 µM
CO[C@H]1CC[C@H](N2C(=O)CNc3ncc(-c4ccc(C(C)(C)O)nc4)nc32)CC1 | 570 | 502 | 462 | 18.6 µM | 18.6 µM | 16.6 µM
C=CC(=O)Nc1cccc(Oc2nc(Nc3ccc(N4CCN(C)CC4)cc3)nc3ccsc23)c1 | 330 | 337 | 277 | 8.33 µM | 5.9 µM | 5.9 µM

Structure (SMILES) | area under concentration-response curve (CU-ACC2 [1]) | area under concentration-response curve (NCI-H295R [2]) | area under concentration-response curve (CU-ACC1 [3]) | AC50 viability (CU-ACC2 [4]) | AC50 viability (NCI-H295R [5]) | AC50 viability (CU-ACC1 [6])
CN1CC[C@H]([C@@H](O)C1)C2=C(O)C=C(O)C3=C2O\C(=C/C3=O)C4=CC=CC=C4Cl | 392 | 352 | 346 | 0.417 µM | 1.32 µM | 0.833 µM
NC(=O)c1cccc2c(NC(CN3CCC3)c3ccc(Cl)c(C(F)(F)F)c3)ncnc12 (stereo not given) | 160 | 223 | 266 | 0.332 µM | 1.18 µM | 0.263 µM
Cc1cc(Nc2ncc3c(n2)N(C)C(=O)N(c2cc(NC(=O)c4cccc(C(F)(F)F)c4)ccc2C)C3)n(C)n1 | 483 | 512 | 468 | 2.63 µM | 7.42 µM | 11.8 µM
CC[C@H](CC#N)OC(=O)N[C@@H](C)c1cccc(NC(=O)Nc2ccc(-c3cnco3)c(OC)c2)c1 | 530 | 489 | 456 | 5.9 µM | 2.09 µM | 5.9 µM
C[C@@H](NCc1cc2ccccc2[nH]1)c1cccc2ccccc12 | 479 | 428 | 428 | 20.9 µM | 23.5 µM | 20.9 µM
Cc1cc(C[S+](=O)([O-])c2ccccc2)cc(OCc2ccc(CN3CCC[C@@H]3CO)cc2)c1 | 463 | 425 | 428 | 20.9 µM | 26.3 µM | 14.8 µM
CCCCCCCCc1ccc(CCC(N)(CO)CO)cc1 | 384 | 395 | 357 | 8.33 µM | 11.8 µM | 10.5 µM
Fc1ccc2[nH]ccc2c1-c1nc(N2CCOCC2)c2sc(CN3CCN(CC4CC4)CC3)cc2n1 | 462 | 487 | 482 | 26.3 µM | 20.9 µM | 18.6 µM
O=C(Nc1ccccc1-c1cn2c(CN3CCNCC3)csc2n1)c1cnc2ccccc2n1 | 366 | 358 | 367 | 7.42 µM | 2.95 µM | 6.61 µM
C/C=C1\NC(=O)[C@H]2CSSCC/C=C\[C@H](CC(=O)N[C@H](C(C)C)C(=O)N2)OC(=O)[C@H](C(C)C)NC1=O | 224 | 293 | 235 | 0.0235 µM | 0.118 µM | 0.00742 µM
CN[C@H]1CC[C@@H](c2ccc(Cl)c(Cl)c2)c2ccccc21 | 438 | 394 | 386 | 16.6 µM | 11.8 µM | 10.5 µM
Nc1nc(Nc2ccc([S+](N)(=O)[O-])cc2)nn1C(=O)c1c(F)cccc1F | 466 | 488 | 443 | 3.32 µM | 20.9 µM | 11.8 µM
O=C(/C=C\n1cnc(-c2cc(C(F)(F)F)cc(C(F)(F)F)c2)n1)NNc1cnccn1 | 489 | 469 | 319 | 11.8 µM | 13.2 µM | 20.9 µM
CN1CCN(c2cc(C(=O)Nc3ccc4c(c3)-c3c(c(C(N)=O)nn3-c3ccc(F)cc3)CC4)c(Cl)cn2)CC1 | 521 | 480 | 427 | 20.9 µM | 10.5 µM | 9.34 µM
N=c1c2c(-c3ccccc3)c(-c3ccccc3)n(Cc3ccccc3)c2ncn1[C@H]1CC[C@H](O)CC1 | 531 | 491 | 341 | 18.6 µM | 18.6 µM | 18.6 µM
CCN(CC)CCNC(=O)c1c(C)[nH]c(/C=C2/C(=O)Nc3ccc(-c4csc(-c5ccccc5)n4)cc32)c1C | 521 | 453 | 369 | 9.34 µM | 7.42 µM | 13.2 µM
Cc1nc(Nc2n[nH]c3c2CN(C(=O)N[C@H](CN(C)C)c2ccccc2)C3(C)C)c2sccc2n1 | 442 | 462 | 433 | 5.25 µM | 9.34 µM | 9.34 µM
CNc1nccc(-c2cccnc2Oc2cc(C(=O)Nc3cccc(C(F)(F)F)c3)ccc2C)n1 | 494 | 465 | 461 | 18.6 µM | 18.6 µM | 14.8 µM
COc1cc(Nc2c(C#N)cnc3cc(OCCCN4CCN(C)CC4)c(OC)cc23)c(Cl)cc1Cl | 451 | 430 | 412 | 8.33 µM | 7.42 µM | 5.9 µM
C=C1/C(=C\C=C2/CCC[C@]3(C)[C@@H]([C@H](C)CCCC(C)(C)O)CC[C@@H]23)C[C@@H](O)C[C@@H]1O | 329 and 416 | 364 | 408 and 314 | 14.8 µM |  | 16.6 µM
CC[C@@]1(O)C(=O)OCC/2=C1/C=C3\N(CC4=CC5=CC(=CC=C5N=C34)O)C2=O | 436 | 518 | 271 | 0.742 µM |  | 2.09 µM
Cc1c(NC(=O)c2cc(C(N)=O)nc3cc(F)ccc23)c(C(F)(F)F)nn1Cc1ccc(C#N)cc1 | 443 | 462 | 460 | 10.5 µM |  | 1.66 µM
O=C(CCCCCCC(=O)Nc1ccc([C@H]2O[C@@H](CSc3nc(-c4ccccc4)c(-c4ccccc4)o3)C[C@@H](c3ccc(CO)cc3)O2)cc1)NO | 573 | 492 | 488 | 3.4 µM |  | 2.7 µM
NCCCCNCCCN | 422 | 107 | 312 | 33.2 µM |  | 16.6 µM
CCCNC(=O)[C@H]1O[C@@H]1C(=O)N[C@H](C(=O)N1CCC[C@H]1C(=O)OC)C(C)CC (stereo not given in full) | 504 | 494 | 449 | 18.6 µM |  | 16.6 µM
CN(C)C1CCN(C(=O)c2ccc(NC(=O)Nc3ccc(-c4nc(N5CCOCC5)nc(N5CCOCC5)n4)cc3)cc2)CC1 | 345 | 485 | 411 | 4.17 µM |  | 2.35 µM

From the supplement of paper PMC10949913
